Measured values as given in US7943611B2, “Imidazo[1,2-A]pyridin-3-yl-acetic acid hydrazides, processes, for their preparation and pharmaceutical uses thereof” (Ferrer International, S.A., priority 2006, dated 2011).

Legend:
[1] = target: T1, α1-subunit of the GABAA receptor (Rattus norvegicus, UniProt P62813); assay: Ligand-binding assay, radiolabeled flumazenil competition, cerebellum membranes; conditions: 1 nM radiolabeled flumazenil; for inhibition at 10 µM: 10^−5 M test compound, read-out: % Inhib 10^−5M (affinity for the α1-subunit of the GABAA receptor); for inhibition at 0.1 µM: 10^−7 M test compound, read-out: % Inhib 10^−7M (affinity for the α1-subunit of the GABAA receptor)
T1 construct: the cerebellum (tissue that mostly contains α1-GABAA receptor); from tissue; host or cells: rat cerebellum membranes
Experimental: (§1) a) Ligand-Binding Assays. Determination of the Affinity of Test Compounds for α1- and α2-GABAA Receptor
(§2) Male Sprague-Dawley rats weighing 200-250 g at the time of experiment were used. After decapitation of the animal, the cerebellum (tissue that mostly contains α1-GABAA receptor) and spinal cord (tissue that mostly contains α2-GABAA receptor) were removed. The membranes were prepared according to the method by J. Lameh et al. (Prog. Neuro-Psychopharmacol. Biol. Psychiatry, 24, 979-991, 2000) and H. Noguchi et al. (Eur J Pharm, 434, 21-28, 2002) with slight modifications. Once the tissues weighed, they were suspended in 50 mM Tris.HCl (pH 7.4), 1:40 (v/v), or sucrose 0.32 M in the case of spinal cord, homogenized and then centrifuged at 20,000 g for 10 min at 7° C. The resulting pellet was resuspended under the same conditions and centrifuged again. The pellet was finally resuspended on a minimum volume and kept at −80° C. overnight. On the next day, the process was repeated until the final pellet was resuspended at a ratio of 1:10 (v/v) in the case of cerebellum and at a ratio of 1:5 (v/v) in the case of spinal cord.
(§3) Affinity was determined by competitive tests using radiolabeled flumazenil as ligand. The tests were performed according to the methods described by S. Arbilla et al. (Eur. J. Pharmacol., 130, 257-263, 1986); and Y. Wu et al. (Eur. J. Pharmacol., 278, 125-132, 1995) using 96-well microtiter plates. The membranes containing the study receptors, flumazenil (radiolabeling at a final concentration of 1 nM) and ascending concentrations of test compounds (in a total volume of 230 μl in 50 mM [pH 7.4] Tris.HCl buffer) were incubated. Simultaneously, the membranes were only incubated with the radiolabeled flumazenil (total binding, 100%) and in the presence of an elevated concentration of unradiolabeled flumazenil (non-specific binding, % estimation of radiolabeled ligand). The reactions started on adding the radiolabeled ligand followed by incubation for 60 minutes at 4° C. At the end of the incubation period, 200 μl of reaction were transferred to a multiscreen plate (Millipore) and filtered using a vacuum manifold and then washed three times with cold test buffer. The multiscreen plates were equipped with a GF/B filter that retained the membranes containing the receptors and the radiolabeled ligand which had been bound to the receptors. After washing, the plates were left till dry. Once dried, scintillation liquid was added and left under stirring overnight. The next day the plates were counted using a Perkin-Elmer Microbeta scintillation counter.
(§4) For analysis of the results the percentage of specific binding for every concentration of test compound was calculated as follows: % specific binding=(X−N/T−N)×100 where, • X: amount of bound ligand for every concentration of compound. • T: total binding, maximum amount bound to the radiolabeled ligand. • N: non-specific binding, amount of radiolabeled ligand bound in a non-specific way irrespective of the receptor used.
(§5) Every concentrations of compound were tested in triplicate and their mean values were used to determine the experimental values of % specific binding versus the concentration of compound. Affinity data are expressed as % inhibition at 10^−5 M and 10^−7 M concentrations.

[2] = tested on: spontaneous motor activity in mice; assay: In vivo predictive sedation-hypnosis test (spontaneous motor activity, traveled distance); design: species or system mouse; conditions: for % Motor activity inhibition: male CD1 mice, single equimolecular intraperitoneal dose, traveled distance vs control over 30 min (first 5 min discarded); for ID50 inhibiting spontaneous motor activity: dose-response curve, intraperitoneal
Experimental: b) In Vivo Determination of Predictive Sedative-Hypnotic Action
The in vivo effects of these compounds were assessed by a predictive sedation-hypnosis test in mice (D. J. Sanger et al., Eur. J. Pharmacol., 313, 35-42, 1996; and G. Griebel et al., Psychopharmacology, 146, 205-213, 1999).
Groups of 5-8 male CD1 mice, weighing 22-26 g at the time of test, were used. The test compounds were administered in single equimolecular intraperitoneal doses, suspended in 0.25% agar with one drop of Tween in a volume of 10 mL/kg. Control animals received the vehicle alone. Using a Smart System (Panlab, S. L., Spain) the traveled distance in cm was recorded for each mouse at 5 min intervals during a period of 30 minutes after dosing. The inhibition percentage traveled distance of treated animals versus control animals (the first 5 min were discarded) was calculated.

[3] = tested on: α2-subunit of the GABAA receptor; assay: Ligand-binding assay, radiolabeled flumazenil competition, spinal cord membranes; conditions: rat spinal cord membranes, 1 nM radiolabeled flumazenil; for % Inhib 10^−5M (affinity for the α2-subunit of the GABAA receptor): 10^−5 M test compound; for % Inhib 10^−7M (affinity for the α2-subunit of the GABAA receptor): 10^−7 M test compound
Experimental: as §1, §2, §3, §4, §5

Question: `Cc1ccc(-c2nc3ccc(C)cn3c2CC(=O)N(C)N)cc1` [Example 6, (6-Methyl-2-p-tolyl-imidazo[1,2-a]pyridin-3-yl)-acetic Acid N-methyl-hydrazide] was tested. Which inhibition at 10 µM [1] did it give?
Answer: 99%

Question: What about the inhibition at 0.1 µM [1] of the same compound?
Answer: 59.1%

Question: What about the “% Motor activity inhibition” value [2] of the same compound?
Answer: 93.42%

Question: And the “% Inhib 10^−5M (affinity for the α2-subunit of the GABAA receptor)” value (“% Inhib 10^−5M” below) [3]?
Answer: 71.6%

Question: And the “% Inhib 10^−7M (affinity for the α2-subunit of the GABAA receptor)” value (from here on “% Inhib 10^−7M”) [3]?
Answer: 2.0%

Question: What does the source list for `CC(C)=NNC(=O)Cc1c(-c2ccc(C)cc2)nc2ccc(C)cn12` [Example 9, (6-Methyl-2-p-tolyl-imidazo[1,2-a]pyridin-3-yl)-acetic acid isopropylidene-hydrazide]?
Answer: inhibition at 10 µM [1]: 98.5%; inhibition at 0.1 µM [1]: 24.2%; % Motor activity inhibition [2]: 92.03%; % Inhib 10^−5M (affinity for the α2-subunit of the GABAA receptor) [3]: 86.6%; % Inhib 10^−7M (affinity for the α2-subunit of the GABAA receptor) [3]: 21.9%

Question: Which inhibition at 10 µM [1] does the source give for `C/C=N/NC(=O)Cc1c(-c2ccc(C)cc2)nc2ccc(C)cn12` [Example 8, (6-Methyl-2-p-tolyl-imidazo[1,2-a]pyridin-3-yl)-acetic Acid Ethylidene-hydrazide] here?
Answer: 97.6%

Question: What about the inhibition at 0.1 µM [1] of the same compound?
Answer: 25.2%

Question: What about the “% Motor activity inhibition” value [2] of the same compound?
Answer: 90.16%

Question: And the “% Inhib 10^−5M” value [3]?
Answer: 88.6%

Question: And the “% Inhib 10^−7M” value [3]?
Answer: 11.2%

Question: What does the source list for `Cc1ccc(-c2nc3ccc(C)cn3c2CC(=O)N/N=C/c2ccc(Cl)cc2)cc1` [Example 7, (6-Methyl-2-p-tolyl-imidazo[1,2-a]pyridin-3-yl)-acetic Acid (4-chlorobenzylidene)-hydrazide]?
Answer: inhibition at 10 µM [1]: 46.1%; inhibition at 0.1 µM [1]: 0.9%; % Motor activity inhibition [2]: 25.05%

Question: Which results are given for `Cc1ccc(-c2nc3ccc(C)cn3c2CC(=O)NN)cc1` [Example 3, (6-Methyl-2-p-tolyl-imidazo[1,2-a]pyridin-3-yl)-acetic Acid Hydrazide]?
Answer: inhibition at 10 µM [1]: 98.7%; inhibition at 0.1 µM [1]: 55.9%; % Motor activity inhibition [2]: 92.03%; ID50 inhibiting spontaneous motor activity ([2]; mice): 1.9 µmol/kg; fold greater potency in inhibiting spontaneous motor activity compared to zolpidem ([2]; mice, from ID50 values): 2 fold

Question: How did the inhibition at 10 µM [1] turn out when `Cc1ccc(-c2nc3ccc(C)cn3c2CC(=O)N(C)C)cc1` [Zolpidem, N,N,6-trimethyl-2-p-tolylimidazo[1,2-a]pyridine-3-acetamide, reference compound] was run?
Answer: 73.6%

Question: What about the “% Motor activity inhibition” value [2] of the same compound?
Answer: 91.70%

Question: What about the “ID50 inhibiting spontaneous motor activity” value ([2]; mice) of the same compound?
Answer: 4.4 µmol/kg

Question: What about the “% Inhib 10^−5M” value [3] of the same compound?
Answer: 74.1%

Question: And the “% Inhib 10^−7M” value [3]?
Answer: 19.9%
